Laboratory results published in the NIST ThermoML archive (doi:10.1021/je2000952).

Conditions: Liquid, Closed cell (Static) method

C=C(F)C(F)(F)F [2,3,3,3-tetrafluoro-1-propene]
Conditions | vapor or sublimation pressure [kPa]
245.65 K | 110.3
248.15 K | 122.6
250.65 K | 136.1
253.15 K | 150.7
255.65 K | 166.4
258.15 K | 183.6
260.65 K | 201.9
263.15 K | 221.6
265.65 K | 242.5
268.15 K | 265.2
270.65 K | 289.7
273.15 K | 315.7
275.65 K | 343.3
278.15 K | 372.8
280.65 K | 404.1
283.15 K | 437.4
285.65 K | 472.9
288.15 K | 510.3
290.65 K | 549.9
293.16 K | 591.8
295.65 K | 636
298.16 K | 682.7
300.66 K | 731.9
303.16 K | 783.6
305.66 K | 838.1
308.16 K | 895.3
310.66 K | 955.5
313.16 K | 1018.5
315.66 K | 1084
318.16 K | 1153.4
320.66 K | 1225.8
323.16 K | 1301.6
325.65 K | 1381
328.15 K | 1463.9
330.66 K | 1550.6
333.16 K | 1641.1
335.66 K | 1735.7
338.16 K | 1833.9
340.66 K | 1936.6
343.15 K | 2043.7

FCC(F)(F)F [1,1,1,2-tetrafluoroethane]
Conditions | vapor or sublimation pressure [kPa]
283.13 K | 414.4
293.14 K | 571.1
303.12 K | 769.2
313.11 K | 1014.9
323.17 K | 1318.5
333.16 K | 1681.1
343.16 K | 2117.3
